Measurements reported in US20230091225A1, “Bifunctional chimeric heterocyclic compounds for targeted degradation of androgen receptors and use thereof” (HINOVA PHARMACEUTICALS INC., priority 2019, published 2023).
Like-named read-outs stand apart in the source and are kept apart here.

Biological target: T1, androgen receptor (AR) (Homo sapiens, UniProt P10275)
T1 sequence (P10275 1-920): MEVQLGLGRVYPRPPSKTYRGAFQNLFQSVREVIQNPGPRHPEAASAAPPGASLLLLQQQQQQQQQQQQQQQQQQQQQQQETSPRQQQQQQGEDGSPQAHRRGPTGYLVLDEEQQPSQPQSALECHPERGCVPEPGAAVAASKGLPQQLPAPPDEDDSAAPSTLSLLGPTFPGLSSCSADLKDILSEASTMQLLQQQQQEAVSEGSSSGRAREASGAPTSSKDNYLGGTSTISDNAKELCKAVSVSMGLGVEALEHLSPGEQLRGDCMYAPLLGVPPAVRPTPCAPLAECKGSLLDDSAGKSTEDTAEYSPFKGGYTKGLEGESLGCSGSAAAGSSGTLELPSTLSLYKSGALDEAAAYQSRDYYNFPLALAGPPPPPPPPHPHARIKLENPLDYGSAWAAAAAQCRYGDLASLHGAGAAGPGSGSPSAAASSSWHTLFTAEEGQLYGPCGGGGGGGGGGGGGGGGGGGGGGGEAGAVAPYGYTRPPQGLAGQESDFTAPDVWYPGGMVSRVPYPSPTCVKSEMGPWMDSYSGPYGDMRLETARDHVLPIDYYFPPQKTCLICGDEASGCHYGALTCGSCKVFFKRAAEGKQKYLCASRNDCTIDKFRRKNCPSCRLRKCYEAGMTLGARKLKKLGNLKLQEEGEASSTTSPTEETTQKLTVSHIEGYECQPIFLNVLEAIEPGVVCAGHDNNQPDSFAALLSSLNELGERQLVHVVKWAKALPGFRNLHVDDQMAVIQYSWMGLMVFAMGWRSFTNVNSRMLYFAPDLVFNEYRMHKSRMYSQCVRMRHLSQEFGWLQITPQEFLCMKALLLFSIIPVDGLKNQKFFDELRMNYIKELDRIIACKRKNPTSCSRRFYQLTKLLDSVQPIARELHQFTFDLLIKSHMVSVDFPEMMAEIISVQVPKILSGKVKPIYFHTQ
Assay: Degradation of androgen receptor (AR) protein in VCaP cells by ELISA
Format: cell-based
Settings: for DC50: read-out: DC50; for Dmax: VCaP

[1] = AR degradation, VCaP cells, 16 h, ELISA, Table 3-1
[2] = AR degradation, VCaP cells, 16 h, ELISA, Table 3-1, read-out: Dmax (%)
[3] = AR degradation, VCaP cells, 16 h, ELISA, Table 3-2
[4] = AR degradation, VCaP cells, 16 h, ELISA, Table 3-2, read-out: Dmax (%)

Compound | DC50 [1] | Dmax [2] | also measured
N#Cc1ccc(O[C@H]2CC[C@H](NC(=O)c3ccc(N4CCN(C5CC6(CCN(c7ccc8c(c7)C(=O)N(C7CCC(=O)NC7=O)C8=O)CC6)C5)CC4)nn3)CC2)cc1Cl (some centres unmarked) [Compound 271, N-((1r,4r)-4-(3-chloro-4-cyanophenoxy)cyclohexyl)-6-(4-(7-(2-(2,6-dioxopiperidin-3-yl)-1,3-dioxoisoindolin-5-yl)-7-azaspiro[3.5]nonan-2-yl)piperazin-1-yl)pyridazine-3-formamide] | < 0.01 µM | > 80% | –
N#Cc1ccc(O[C@H]2CC[C@H](NC(=O)c3nnc(N4CCC(N5CCC6(CC5)CN(c5cc7c(cc5F)C(=O)N(C5CCC(=O)NC5=O)C7=O)C6)CC4)s3)CC2)cc1Cl (some centres unmarked) [Compound 83] | > 0.3 µM | – | Dmax: < 40%
N#Cc1ccc(O[C@H]2CC[C@H](NC(=O)c3cnc(N4CCC(CN5CCC6(CC5)CN(c5ccc7c(c5)C(=O)N(C5CCC(=O)NC5=O)C7=O)C6)CC4)nn3)CC2)cc1Br (some centres unmarked) [Compound 419] | – | – | Dmax (%): ++++ (key: A: >80%; B: 79%-50%; C: 49%-25%; D: <25%); DC50: < 0.01 µM
CC1(C)C(NC(=O)c2ccc(N3CCC(N4CC5(CCN(c6cc7c(cc6F)C(=O)N(C6CCC(=O)NC6=O)C7=O)CC5)C4)CC3)nn2)C(C)(C)C1Oc1ccc(C#N)c(Cl)c1 (centres unmarked) [Compound 80, N-((1s,3s)-3-(3-chloro-4-cyanophenoxy)-2,2,4,4-tetramethylcyclobutyl)-6-(4-(7-(2-(2,6-dioxopiperidin-3-yl)-6-fluoro-1,3-dioxoisoindolin-5-yl)-2,7-diazaspiro [3.5]nonan-2-yl)piperidin-1-yl)pyridazine-3-formamide] | – | – | Dmax (%): +++ (key: ++++: >80%; +++: 80%-60%; ++: 60%-40%; +: <40%); DC50: 0.01 to 0.1 µM
CC1(C)[C@H](Oc2ccc(C#N)c(Cl)c2)C(C)(C)[C@H]1N1Cc2nc(C#CC3CCC(N4CC5(CCN(c6cc7c(cc6F)C(=O)N(C6CCC(=O)NC6=O)C7=O)CC5)C4)CC3)ccc2C1=O (some centres unmarked) [Compound 379, 2-Chloro-4-((1r,3r)-3-(2-((4-(7-(2-(2,6-dioxopiperidin-3-yl)-6-fluoro-1,3-dioxoisoindolin-5-yl)-2,7-diazaspiro[3.5]nonan-2-yl)cyclohexyl)ethynyl)-5-oxo-5,7-dihydro-pyrrolo[3,4-b]pyridin-6-yl)-2,2,4,4-tetramethylcyclobutoxy) benzonitrile] | 0.01 to 0.1 µM | – | Dmax (%) [1]: ++++ (>80%)
N#Cc1ccc(O[C@H]2CC[C@H](NC(=O)c3ccc(N4CCC(CN5CCC6(CC5)CN(c5cc7c(cc5F)C(=O)N(C5CCC(=O)NC5=O)C7=O)C6)CC4)nn3)CC2)cc1 (some centres unmarked) [Compound 132, N-((1r,4r)-4-(4-cyanophenoxy)cyclohexyl)-6-(4-((2-(2-(2,6-dioxapiperidin-3-yl)-6-fluoro-1,3-dioxoisoindolin-5-yl)-2,7-diazaspiro[3.5]nonan-7-yl)methyl)piperidin-1-yl)pyridazine-3-carboxamide] | 0.01 to 0.1 µM | – | Dmax: 60 to 80%
N#Cc1ccc(O[C@H]2CC[C@H](NC(=O)c3ncnn3[C@H]3CC[C@H](CN4CCC5(CC4)CN(c4cc6c(cc4F)C(=O)N(C4CCC(=O)NC4=O)C6=O)C5)CC3)CC2)cc1Cl (some centres unmarked) [Compound 87] | 0.1 to 0.3 µM | 40 to 60% | –
N#Cc1ccc(OC2CCC(NC(=O)c3cnc(N4CCN(C5CC6(CCN(c7ccc8c(c7)C(=O)N(C7CCC(=O)NC7=O)C8=O)CC6)C5)CC4)cn3)CC2)cc1Cl (centres unmarked) [Compound 278, N-((1r,4r)-4-(3-chloro-4-cyanophenoxy)cyclohexyl)-5-(4-(7-(2-(2,6-dioxopiperidin-3-yl)-1,3-dioxoisoindolin-5-yl)-7-azaspiro[3.5]nonan-2-yl)piperazin-1-yl)pyrazine-2-carboxamide] | < 0.01 µM | – | Dmax (%) [1]: ++++ (>80%)
N#Cc1ccc(O[C@H]2CC[C@H](NC(=O)c3cnc(N4CC5(CCN(CC6CCN(c7cc8c(cc7F)C(=O)N(C7CCC(=O)NC7=O)C8=O)CC6)C5)C4)cn3)CC2)cc1Cl (some centres unmarked) [Compound 96] | < 0.01 µM | > 80% | –
N#Cc1ccc(O[C@H]2CC[C@H](NC(=O)c3cnc(N4CCC(CN5CCC6(CC5)CN(c5cc7c(cc5F)C(=O)N(C5CCC(=O)NC5=O)C7=O)C6)CC4)nc3)CC2)cc1Cl (some centres unmarked) [Compound 268] | < 0.01 µM | > 80% | –
CC(=O)O[C@@H]1C[C@H](C(=O)NC2(c3ccc(-c4scnc4C)cc3)CC2)N(C(=O)[C@@H](NC(=O)COCCCCC#Cc2ccc(C(=O)N[C@H]3C(C)(C)[C@H](Oc4ccc(C#N)c(Br)c4)C3(C)C)cc2)C(C)(C)C)C1 [Compound 8, (3R,5R)-1-((S)-2-(2-((6-(4-(((1R,3R)-3-(3-bromo-4-cyanophenoxy)-2,2,4,4-tetramethylcyclobutyl)carbamoyl)phenyl)hex-5-yn-1-yl)oxy)acetylamino)-3,3-dimethylbutyryl)-5-((1-(4-(4-methylthiazol-5-yl)phenyl)cyclopropyl)carbamoyl) pyrrolidin-3-yl acetate] | – | – | inhibition at 0.1 µM (percentage of degraded AR at 100 nM, VCaP cells, 16 h, ELISA, read-out: % degradation): 25 to 49%
N#Cc1ccc(O[C@H]2CC[C@H](NC(=O)c3ccc(N4CCC5(CCN(CC6CCN(c7ccc8c(c7)C(=O)N(C7CCC(=O)NC7=O)C8=O)CC6)CC5)CC4)nn3)CC2)cc1Cl (some centres unmarked) [Compound 262, N-((1r,4r)-4-(3-chloro-4-cyanophenoxy)cyclohexyl)-6-(9-((1-(2-(2,6-dioxopiperidin-3-yl)-1,3-dioxoisoindolin-5-yl)piperidine-4-yl)methyl)-3,9-diazaspiro[5.5]undecan-3-yl)pyridazine-3-formamide] | < 0.01 µM | > 80% | –
N#Cc1ccc(O[C@H]2CC[C@H](NC(=O)c3cnc(N4CCC(CN5CCC6(CC5)CN(c5ccc7c(c5)C(=O)N(C5CCC(=O)NC5=O)C7=O)C6)CC4)nn3)CC2)cc1C(F)(F)F (some centres unmarked) [Compound 420, N-((1r,4r)-4-(4-cyano-3-trifluoromethyl-phenoxy)cyclohexyl)-3-(4-((2-(2-(2,6-dioxopiperidin-3-yl)-1,3-dioxoisoindolin-5-yl)-2,7-diazaspiro[3.5]nonane-7-yl)methyl)piperidin-1-yl)-1,2,4-triazine-6-formamide] | – | – | DC50 [3]: < 0.01 µM; Dmax [4]: > 80%
N#Cc1ccc(OC2CCC(NC(=O)c3ccc(N4CCN(CC5[C@H]6CN(c7cc8c(cc7F)C(=O)N(C7CCC(=O)NC7=O)C8=O)C[C@@H]56)CC4)nn3)CC2)cc1C(F)(F)F (some centres unmarked) [Compound 95] | – | – | Dmax (%): +++ (key: ++++: >80%; +++: 80%-60%; ++: 60%-40%; +: <40%); DC50: 0.01 to 0.1 µM
N#Cc1ccc(O[C@H]2CC[C@H](NC(=O)c3cnc(N4CCC(CN5CCC6(C5)CN(c5ccc7c(c5)C(=O)N(C5CCC(=O)NC5=O)C7=O)C6)CC4)cn3)CC2)cc1Cl (some centres unmarked) [Compound 187, N-((1r,4r)-4-(3-chloro-4-cyanophenoxy)cyclohexyl)-5-(4-((2-(2-(2,6-dioxopiperidin-3-yl)-1,3-dioxoisoindolin-5-yl)-2,6-diazaspiro[3.4]octan-6-yl)methyl)piperidin-1-yl)pyrazine-2-carboxamide] | < 0.01 µM | > 80% | –
N#Cc1ccc(O[C@H]2CC[C@H](NC(=O)c3cnn([C@H]4CC[C@H](CN5CCC6(CC5)CN(c5ccc7c(c5)C(=O)N(C5CCC(=O)NC5=O)C7=O)C6)CC4)n3)CC2)cc1Cl (stereo partly drawn) [Compound 116, N-((1r,4R)-4-(3-chloro-4-cyanophenoxy)cyclohexyl)-2-((1r,4R)-4-((2-(2-(2,6-dioxopiperidin-3-yl)-1,3-dioxoisoindolin-5-yl)-2,7-diazaspiro[3.5]nonan-7-yl)methyl)cyclohexyl)-2H-1,2,3-triazole-4-carboxamide] | < 0.01 µM | > 80% | –
CCOc1cc(O[C@H]2C(C)(C)[C@H](N3Cc4nc(C#C[C@H]5CC[C@H](N6CCN(c7ccc8c(c7)C(=O)N(C7CCC(=O)NC7=O)C8=O)CC6)CC5)ccc4C3=O)C2(C)C)ccc1C#N (some centres unmarked) [Compound 430] | – | – | DC50 [3]: 0.1 to 0.3 µM; Dmax [4]: 60 to 80%
N#Cc1ccc(O[C@H]2CC[C@H](NC(=O)c3cnc(N4CCC(N5CCC6(CC5)CN(c5ccc7c(c5)C(=O)N(C5CCC(=O)NC5=O)C7=O)C6)CC4)cn3)CC2)cc1Cl (some centres unmarked) [Compound 280, N-((1r,4r)-4-(3-chloro-4-cyanophenoxy)cyclohexyl)-5-(4-(2-(2-(2,6-dioxopiperidin-3-yl)-1,3-dioxoisoindolin-5-yl)-2,7-diazaspiro[3.5]nonan-7-yl)piperidin-1-yl)pyrazine-2-carboxamide] | 0.01 to 0.1 µM | > 80% | –
